Data reported in ChEMBL document CHEMBL3769398 (J Med Chem, 2016).

Experiments:
Histone deacetylase 8 [1] = molecular target: T1, Histone deacetylase 8 (Homo sapiens, UniProt Q9BY41); experiment: Inhibition of recombinant human KDAC8 using FAM-labelled substrate B incubated for 60 mins by microfluidic chip-based assay
T1 sequence (Q9BY41 whole entry): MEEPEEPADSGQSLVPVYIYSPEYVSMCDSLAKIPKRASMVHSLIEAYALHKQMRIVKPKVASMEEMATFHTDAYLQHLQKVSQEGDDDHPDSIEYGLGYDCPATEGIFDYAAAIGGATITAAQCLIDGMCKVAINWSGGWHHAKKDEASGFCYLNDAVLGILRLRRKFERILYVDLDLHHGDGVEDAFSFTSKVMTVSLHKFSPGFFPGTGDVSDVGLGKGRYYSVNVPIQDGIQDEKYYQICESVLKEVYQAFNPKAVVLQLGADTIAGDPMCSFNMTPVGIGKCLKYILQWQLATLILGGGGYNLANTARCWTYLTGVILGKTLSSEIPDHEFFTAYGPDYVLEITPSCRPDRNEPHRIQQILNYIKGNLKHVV

Histone deacetylase 1 [2] = molecular target: T2, Histone deacetylase 1 (Homo sapiens, UniProt Q13547); experiment: Inhibition of recombinant human KDAC1 using FAM-labelled substrate A incubated for 60 mins by microfluidic chip-based assay
Histone deacetylase 3 [3] = molecular target: T3, Histone deacetylase 3 (Homo sapiens, UniProt O15379); experiment: Inhibition of recombinant human KDAC3 using FITC-p53 acetylated peptide substrate incubated for 60 mins by microfluidic chip-based assay
Histone deacetylase 8 [4] = molecular target: T1, Histone deacetylase 8; experiment: Inhibition of full length human recombinant KDAC8 using fluorophore-conjugated substrate measured as fluorigenic release of 7-amino-4-methylcoumarin by microtiter plate reader analysis
Histone deacetylase 3 [5] = molecular target: T3, Histone deacetylase 3; experiment: Inhibition of human KDAC3
[6] = molecular target: T4, Protein deacetylase HDAC6 (Homo sapiens, UniProt Q9UBN7); experiment: Inhibition of human KDAC6
T4 sequence (Q9UBN7 whole entry): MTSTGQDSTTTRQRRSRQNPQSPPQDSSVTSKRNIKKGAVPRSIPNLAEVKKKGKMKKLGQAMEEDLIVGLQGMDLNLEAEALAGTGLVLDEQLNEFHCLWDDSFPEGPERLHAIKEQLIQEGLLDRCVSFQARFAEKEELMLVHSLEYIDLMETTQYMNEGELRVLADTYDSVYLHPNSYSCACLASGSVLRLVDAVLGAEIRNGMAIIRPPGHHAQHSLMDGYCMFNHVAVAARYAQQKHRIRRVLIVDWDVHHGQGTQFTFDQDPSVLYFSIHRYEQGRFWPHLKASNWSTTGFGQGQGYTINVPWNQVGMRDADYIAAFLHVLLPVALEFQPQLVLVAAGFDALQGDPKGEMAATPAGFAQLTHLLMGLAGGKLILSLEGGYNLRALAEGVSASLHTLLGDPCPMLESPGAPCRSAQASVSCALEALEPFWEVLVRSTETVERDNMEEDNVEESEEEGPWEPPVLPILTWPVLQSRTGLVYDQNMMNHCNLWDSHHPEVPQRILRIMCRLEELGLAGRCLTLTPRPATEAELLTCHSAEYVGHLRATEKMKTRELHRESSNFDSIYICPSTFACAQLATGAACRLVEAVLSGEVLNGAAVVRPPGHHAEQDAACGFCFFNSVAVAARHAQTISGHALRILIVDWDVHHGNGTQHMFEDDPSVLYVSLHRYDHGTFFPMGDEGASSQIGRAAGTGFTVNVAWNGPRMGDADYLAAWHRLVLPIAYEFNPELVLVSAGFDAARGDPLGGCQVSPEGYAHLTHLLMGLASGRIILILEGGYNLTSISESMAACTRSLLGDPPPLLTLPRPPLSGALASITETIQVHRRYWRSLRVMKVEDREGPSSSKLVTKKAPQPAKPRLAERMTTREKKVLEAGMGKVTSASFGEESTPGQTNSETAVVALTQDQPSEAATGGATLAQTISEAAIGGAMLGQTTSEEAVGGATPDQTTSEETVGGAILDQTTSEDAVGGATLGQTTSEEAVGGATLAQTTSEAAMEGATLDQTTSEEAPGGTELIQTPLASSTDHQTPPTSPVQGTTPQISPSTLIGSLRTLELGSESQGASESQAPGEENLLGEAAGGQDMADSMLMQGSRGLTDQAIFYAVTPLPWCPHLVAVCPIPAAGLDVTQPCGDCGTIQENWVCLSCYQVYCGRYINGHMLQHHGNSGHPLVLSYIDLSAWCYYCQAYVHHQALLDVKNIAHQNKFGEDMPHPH

Histone deacetylase 1 [7] = molecular target: T2, Histone deacetylase 1; experiment: Inhibition of human KDAC1
Histone deacetylase 8 [8] = molecular target: T1, Histone deacetylase 8; experiment: Inhibition of human KDAC8
Histone deacetylase 8 [9] = molecular target: T1, Histone deacetylase 8; experiment: Inhibition of human KDAC8 by fluorescence assay
[10] = molecular target: T4, Protein deacetylase HDAC6; experiment: Inhibition of human KDAC6 by fluorescence assay

T3 sequence (O15379 whole entry): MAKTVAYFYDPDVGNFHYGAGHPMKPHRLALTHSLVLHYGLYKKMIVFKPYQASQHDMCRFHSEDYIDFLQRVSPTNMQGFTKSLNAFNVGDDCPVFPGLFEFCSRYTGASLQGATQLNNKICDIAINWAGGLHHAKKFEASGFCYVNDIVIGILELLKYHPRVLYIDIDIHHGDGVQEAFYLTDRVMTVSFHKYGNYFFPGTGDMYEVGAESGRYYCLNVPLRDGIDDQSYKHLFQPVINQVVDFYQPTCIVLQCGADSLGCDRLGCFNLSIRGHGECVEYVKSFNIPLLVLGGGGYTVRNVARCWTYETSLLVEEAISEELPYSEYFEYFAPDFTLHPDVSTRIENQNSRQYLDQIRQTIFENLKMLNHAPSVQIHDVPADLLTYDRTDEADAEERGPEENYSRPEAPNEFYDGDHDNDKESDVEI
T2 sequence (Q13547 whole entry): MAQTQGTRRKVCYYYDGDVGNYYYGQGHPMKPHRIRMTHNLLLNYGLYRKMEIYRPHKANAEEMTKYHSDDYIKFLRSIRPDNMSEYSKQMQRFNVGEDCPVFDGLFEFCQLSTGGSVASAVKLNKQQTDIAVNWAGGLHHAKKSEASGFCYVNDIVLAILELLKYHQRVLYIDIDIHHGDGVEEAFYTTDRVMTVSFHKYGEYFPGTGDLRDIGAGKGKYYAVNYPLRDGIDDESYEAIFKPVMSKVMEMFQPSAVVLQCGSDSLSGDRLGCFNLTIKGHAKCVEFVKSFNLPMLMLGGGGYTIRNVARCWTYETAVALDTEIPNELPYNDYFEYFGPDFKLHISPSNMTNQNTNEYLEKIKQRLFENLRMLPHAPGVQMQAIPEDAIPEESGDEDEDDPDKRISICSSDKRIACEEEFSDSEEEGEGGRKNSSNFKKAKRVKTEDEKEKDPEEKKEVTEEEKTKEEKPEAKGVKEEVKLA

In the case of `CC(C)[C@@H]1NC(=O)[C@H]2CCCN2C(=O)[C@@H]2CCCN2C(=O)C[C@H](C(=O)NCCCC(=O)NO)NC1=O`, the IC50 (Histone deacetylase 8 [1]) is reported as greater than 30 µM, the IC50 (Histone deacetylase 1 [2]) is reported as greater than 30 µM and the IC50 (Histone deacetylase 3 [3]) is reported as greater than 30 µM.
`CCCCCCCC(=O)SCC/C=C/[C@@H]1CC(=O)NCc2nc(cs2)C2=N[C@@](C)(CS2)C(=O)N[C@@H](C(C)C)C(=O)O1` [LARGAZOLE] gave an IC50 (Histone deacetylase 8 [4]) greater than 30 µM.
Compound `CC(C)[C@@H]1NC(=O)[C@@H]2CCCN2C(=O)[C@H]2CCCN2C(=O)C[C@@H](C(=O)NCCCC(=O)NO)NC1=O` has an IC50 (Histone deacetylase 8 [1]) greater than 30 µM, an IC50 (Histone deacetylase 1 [2]) of 25.1 µM and an IC50 (Histone deacetylase 3 [3]) of 13.7 µM.
Compound `CC(=O)SCC/C=C/[C@@H]1CC(=O)NCc2ccc(cc2)C2=N[C@@](C)(CS2)C(=O)N[C@@H](C(C)C)C(=O)O1` has an IC50 (Histone deacetylase 3 [5]) of 0.47 µM, an IC50 [6] of 1.61 µM and an IC50 (Histone deacetylase 1 [7]) of 3.48 µM. For the same compound, the IC50 (Histone deacetylase 8 [8]) was greater than 30 µM.
`Nc1ccccc1NC(=O)c1ccc(-c2cn(CCc3ccsc3)nn2)cc1` gave an IC50 (Histone deacetylase 8 [9]) greater than 30 µM and an IC50 [10] greater than 30 µM.
